Reference: the CheMixHub ionic liquid set
± gives the uncertainty stated by the source.

Test: xn = mol fraction of the nth substance listed

CC[n+]1ccn(CCOC)c1.O=S(=O)([N-]S(=O)(=O)C(F)(F)F)C(F)(F)F + CO
100 kPa
Details	viscosity [mPa·s]
288.15 K, x1 = 0.2999	7.19 ± 0.17
288.15 K, x1 = 0.5	15.9 ± 0.29
288.15 K, x1 = 0.5984	22.75 ± 0.39
288.15 K, x1 = 0.7934	37.29 ± 0.54
293.15 K, x1 = 1	43.63 ± 0.49
298.15 K, x1 = 0.1	1.627 ± 0.06
298.15 K, x1 = 0.2999	5.44 ± 0.12
303.15 K, x1 = 0.2999	4.8 ± 0.1
303.15 K, x1 = 0.5	9.83 ± 0.17
303.15 K, x1 = 1	29.33 ± 0.33
308.15 K, x1 = 0.1997	2.658 ± 0.067
308.15 K, x1 = 0.2999	4.263 ± 0.09
308.15 K, x1 = 0.3966	6.33 ± 0.11
308.15 K, x1 = 0.5984	12 ± 0.19
308.15 K, x1 = 0.7934	18.08 ± 0.24
313.15 K, x1 = 0.5984	10.42 ± 0.17
313.15 K, x1 = 0.6953	13.27 ± 0.18
313.15 K, x1 = 0.7934	15.68 ± 0.2
318.15 K, x1 = 0.2999	3.449 ± 0.07

C[N+](C)(C)CCC[n+]1ccccc1.N#C[N-]C#N.N#C[N-]C#N + CO
100 kPa
Details	viscosity [mPa·s]
293.15 K, x1 = 0.3999	69.9 ± 7
293.15 K, x1 = 0.8995	950 ± 130
303.15 K, x1 = 0.5002	78.6 ± 7.9
303.15 K, x1 = 0.7003	184 ± 20
313.15 K, x1 = 0.0999	3.18 ± 0.32
313.15 K, x1 = 0.3999	31.9 ± 3.2
313.15 K, x1 = 0.5002	53.3 ± 5.3
313.15 K, x1 = 0.7998	145 ± 15
313.15 K, x1 = 1	386 ± 46
323.15 K, x1 = 0.3002	13.6 ± 1.4
323.15 K, x1 = 0.3999	23.6 ± 2.4
323.15 K, x1 = 0.5002	38.3 ± 3.8
323.15 K, x1 = 0.6001	54.1 ± 5.4
333.15 K, x1 = 0.0999	2.54 ± 0.26
333.15 K, x1 = 0.2001	6.12 ± 0.62
333.15 K, x1 = 0.3999	18.5 ± 1.9
333.15 K, x1 = 0.6001	38.5 ± 3.9

CC(=O)[O-].CCCCCCCCCCCCCC[P+](CCCCCC)(CCCCCC)CCCCCC + COCCOCCOCCOCCOC
100 kPa
Details	viscosity [mPa·s]
278.15 K, x2 = 0.207	651 ± 35
278.15 K, x2 = 0.499	176 ± 5
283.15 K, x2 = 0.207	462 ± 22
288.15 K, x2 = 0.103	549 ± 28
288.15 K, x2 = 0.4	145 ± 4
298.15 K, x2 = 0.103	287 ± 11
298.15 K, x2 = 0.4	88 ± 1
313.15 K, x2 = 0.103	130 ± 3

NC(=O)C(F)(F)F + C[P+](c1ccccc1)(c1ccccc1)c1ccccc1.[Br-]
288.15 K, 101.3 kPa, x1 = 0.889
Details	electrical conductivity [S/m]	viscosity [mPa·s]
–	0.035 ± 0.014	410

CCCCCC[n+]1ccn(C)c1.[Cl-] + O
Details	electrical conductivity [S/m]	viscosity [mPa·s]
278.15 K, 100 kPa, x1 = 8.613e-05	–	1.531 ± 0.011
278.15 K, 100 kPa, x1 = 0.0001839	–	1.539 ± 0.011
278.15 K, 100 kPa, x1 = 0.0003576	–	1.551 ± 0.012
278.15 K, 100 kPa, x1 = 0.0005405	–	1.562 ± 0.012
278.15 K, 100 kPa, x1 = 0.000744	–	1.573 ± 0.012
278.15 K, 100 kPa, x1 = 0.0009399	–	1.585 ± 0.012
278.15 K, 100 kPa, x1 = 0.001103	–	1.596 ± 0.012
278.15 K, 100 kPa, x1 = 0.001379	–	1.613 ± 0.012
278.15 K, 100 kPa, x1 = 0.001677	–	1.641 ± 0.012
283.15 K, 100 kPa, x1 = 8.613e-05	–	1.314 ± 0.01
283.15 K, 100 kPa, x1 = 0.0001839	–	1.32 ± 0.01
283.15 K, 100 kPa, x1 = 0.0003576	–	1.329 ± 0.01
283.15 K, 100 kPa, x1 = 0.0005405	–	1.337 ± 0.01
283.15 K, 100 kPa, x1 = 0.000744	–	1.348 ± 0.01
283.15 K, 100 kPa, x1 = 0.0009399	–	1.358 ± 0.01
283.15 K, 100 kPa, x1 = 0.001103	–	1.369 ± 0.01
283.15 K, 100 kPa, x1 = 0.001379	–	1.381 ± 0.01
283.15 K, 100 kPa, x1 = 0.001677	–	1.401 ± 0.011
288.15 K, 100 kPa, x1 = 8.613e-05	–	1.145 ± 0.009
288.15 K, 100 kPa, x1 = 0.0001839	–	1.15 ± 0.009
288.15 K, 100 kPa, x1 = 0.0003576	–	1.158 ± 0.009
288.15 K, 100 kPa, x1 = 0.0005405	–	1.166 ± 0.009
288.15 K, 100 kPa, x1 = 0.000744	–	1.174 ± 0.009
288.15 K, 100 kPa, x1 = 0.0009399	–	1.181 ± 0.009
288.15 K, 100 kPa, x1 = 0.001103	–	1.188 ± 0.009
288.15 K, 100 kPa, x1 = 0.001379	–	1.2 ± 0.009
288.15 K, 100 kPa, x1 = 0.001677	–	1.219 ± 0.009
293.15 K, 100 kPa, x1 = 8.613e-05	–	1.008 ± 0.008
293.15 K, 100 kPa, x1 = 0.0001839	–	1.013 ± 0.008
293.15 K, 100 kPa, x1 = 0.0003576	–	1.019 ± 0.008
293.15 K, 100 kPa, x1 = 0.0005405	–	1.025 ± 0.008
293.15 K, 100 kPa, x1 = 0.000744	–	1.033 ± 0.008
293.15 K, 100 kPa, x1 = 0.0009399	–	1.039 ± 0.008
293.15 K, 100 kPa, x1 = 0.001103	–	1.044 ± 0.008
293.15 K, 100 kPa, x1 = 0.001379	–	1.054 ± 0.008
293.15 K, 100 kPa, x1 = 0.001677	–	1.069 ± 0.008
298.15 K, 100 kPa, x1 = 0.0001839	–	0.899 ± 0.007
298.15 K, 100 kPa, x1 = 0.0003576	–	0.905 ± 0.007
298.15 K, 100 kPa, x1 = 0.0005405	–	0.911 ± 0.007
298.15 K, 100 kPa, x1 = 0.000744	–	0.917 ± 0.007
298.15 K, 100 kPa, x1 = 0.0009399	–	0.922 ± 0.007
298.15 K, 100 kPa, x1 = 0.001103	–	0.928 ± 0.007
298.15 K, 100 kPa, x1 = 0.001379	–	0.936 ± 0.007
298.15 K, 100 kPa, x1 = 0.001677	–	0.949 ± 0.007
298.15 K, 101.3 kPa, x1 = 4.23e-06	0.00276 ± 3e-05	–
298.15 K, 101.3 kPa, x1 = 7.11e-06	0.00451 ± 5e-05	–
298.15 K, 101.3 kPa, x1 = 1.01e-05	0.00631 ± 6e-05	–
298.15 K, 101.3 kPa, x1 = 1.293e-05	0.008 ± 8e-05	–
298.15 K, 101.3 kPa, x1 = 1.551e-05	0.00953 ± 0.0001	–
298.15 K, 101.3 kPa, x1 = 1.836e-05	0.01121 ± 0.00011	–
298.15 K, 101.3 kPa, x1 = 2.116e-05	0.0129 ± 0.00013	–
298.15 K, 101.3 kPa, x1 = 2.393e-05	0.0145 ± 0.00015	–
298.15 K, 101.3 kPa, x1 = 2.652e-05	0.016 ± 0.00016	–
298.15 K, 101.3 kPa, x1 = 2.919e-05	0.0175 ± 0.00018	–
303.15 K, 100 kPa, x1 = 8.613e-05	–	0.802 ± 0.006
303.15 K, 100 kPa, x1 = 0.0001839	–	0.805 ± 0.006
303.15 K, 100 kPa, x1 = 0.0003576	–	0.81 ± 0.006
303.15 K, 100 kPa, x1 = 0.0005405	–	0.815 ± 0.006
303.15 K, 100 kPa, x1 = 0.000744	–	0.82 ± 0.006
303.15 K, 100 kPa, x1 = 0.0009399	–	0.825 ± 0.006
303.15 K, 100 kPa, x1 = 0.001103	–	0.829 ± 0.006
303.15 K, 100 kPa, x1 = 0.001379	–	0.836 ± 0.006
303.15 K, 100 kPa, x1 = 0.001677	–	0.847 ± 0.007
308.15 K, 100 kPa, x1 = 8.613e-05	–	0.723 ± 0.006
308.15 K, 100 kPa, x1 = 0.0001839	–	0.726 ± 0.006
308.15 K, 100 kPa, x1 = 0.0003576	–	0.73 ± 0.006
308.15 K, 100 kPa, x1 = 0.0005405	–	0.734 ± 0.006
308.15 K, 100 kPa, x1 = 0.000744	–	0.739 ± 0.006
308.15 K, 100 kPa, x1 = 0.0009399	–	0.743 ± 0.006
308.15 K, 100 kPa, x1 = 0.001103	–	0.747 ± 0.006
308.15 K, 100 kPa, x1 = 0.001379	–	0.753 ± 0.006
308.15 K, 100 kPa, x1 = 0.001677	–	0.762 ± 0.006
313.15 K, 100 kPa, x1 = 8.613e-05	–	0.656 ± 0.005
313.15 K, 100 kPa, x1 = 0.0001839	–	0.659 ± 0.005
313.15 K, 100 kPa, x1 = 0.0003576	–	0.662 ± 0.005
313.15 K, 100 kPa, x1 = 0.0005405	–	0.666 ± 0.005
313.15 K, 100 kPa, x1 = 0.000744	–	0.67 ± 0.005
313.15 K, 100 kPa, x1 = 0.0009399	–	0.673 ± 0.005
313.15 K, 100 kPa, x1 = 0.001103	–	0.677 ± 0.005
313.15 K, 100 kPa, x1 = 0.001379	–	0.683 ± 0.005
313.15 K, 100 kPa, x1 = 0.001677	–	0.691 ± 0.005
